Structures can show the parent of a compound that is named as a salt.
How the values were obtained:
Format in all cases: cell-based
[1] = test system: MECP2 mRNA; assay: MECP2 mRNA in stellate cells; conditions: average fold change; for Stellate MECP2 (Avg_FC) 1 uM: compound 1 uM; for Stellate MECP2 (Avg_FC) 10 uM: compound 10 uM
[2] = test system: MECP2 mRNA; assay: MECP2 mRNA in primary human hepatocytes (donor 1, donor 2); conditions: average fold change; for Human hep donor-1 MECP2 (Avg_FC) 1 uM / Human hep donor-1 MECP2 (Avg_FC) 10 uM: human hepatocytes donor-1; for Human hep donor-1 MECP2 (Avg_FC) 1 uM / Human hep donor-2 MECP2 (Avg_FC) 1 uM: compound 1 uM; for Human hep donor-1 MECP2 (Avg_FC) 10 uM / Human hep donor-2 MECP2 (Avg_FC) 10 uM: compound 10 uM; for Human hep donor-2 MECP2 (Avg_FC) 1 uM / Human hep donor-2 MECP2 (Avg_FC) 10 uM: human hepatocytes donor-2
Procedure: (§1) Human hepatocytes were obtained from two donors from Massachusetts General Hospital, namely MGH54 and MGH63, and one donor from Lonza, namely HUM4111B. Cryopreserved hepatocytes were cultured in plating media for 16 hours, transferred to maintenance media for 4 hours. Cultured on serum-free media for 2 hours, then a compound was added. The hepatocytes were maintained on the serum-free media for 16 hours prior to gene expression analysis. Primary human hepatocytes were stored in the vapor phase of a liquid nitrogen freezer (about −130° C.).
(§2) Human hepatocytes cultured as described above were plated in 24-well format, adding 375,000 cells per well in a volume of 500 ul plating medium. Four hours before treatment, cells were washed with PBS and the medium was changed to either: fresh maintenance medium (complete) or modified maintenance medium.
(§3) Compound stocks were prepared at 1000× final concentration and added in a 2-step dilution to the medium to reduce risk of a compound precipitating out of solution when added to the cells, and to ensure reasonable pipetting volumes. One at a time, each compound was first diluted 10-fold in warm (about 37° C.) modified maintenance medium (initial dilution=ID), mixed by vortexing, and the ID was diluted 100-fold into the cell culture (e.g. 5.1 ul into 1 well of a 24-well plate containing 0.5 mL medium). The plate was mixed by carefully swirling and after all wells were treated and returned to the incubator overnight. If desired, separate plates/wells were treated with vehicle-only controls and/or positive controls. If using multi-well plates, controls were included on each plate. After about 18 hours, cells were harvested for further analysis, e.g., ChIP-seq, RNA-seq, ATAC-seq, etc.
Samples were amplified using Taqman probes from ThermoFisher.

[3] = test system: JAG1; assay: RNA-seq of JAG1 expression in compound-treated primary human hepatocytes
Procedure: (§4) Human hepatocytes were obtained from two donors from Massachusetts General Hospital, namely MGH54 and MGH63, and one donor from Lonza, namely HUM4111B. Cryopreserved hepatocytes were cultured in plating media for 16 hours, transferred to maintenance media for 4 hours. Cultured on serum-free media for 2 hours, then a compound was added. The hepatocytes were maintained on the serum-free media for 16 hours prior to gene expression analysis. Primary human hepatocytes were stored in the vapor phase of a liquid nitrogen freezer (about -130° C.). Human hepatocytes cultured as described above were plated in 24-well format, adding 375,000 cells per well in a volume of 500 ul plating medium. Four hours before treatment, cells were washed with PBS and the medium was changed to either: fresh maintenance medium (complete) or modified maintenance medium. Compound stocks were prepared at 1000× final concentration and added in a 2-step dilution to the medium to reduce risk of a compound precipitating out of solution when added to the cells, and to ensure reasonable pipetting volumes. […] The plate was mixed by carefully swirling and after all wells were treated and returned to the incubator overnight. If desired, separate plates/wells were treated with vehicle-only controls and/or positive controls. If using multi-well plates, controls were included on each plate. After about 18 hours, cells were harvested for further analysis, e.g., ChIP-seq, RNA-seq, ATAC-seq, etc. This protocol is a modified version of the following protocols: MagMAX mirVana Total RNA Isolation Kit User Guide (Applied Biosystems #MAN0011131 Rev B.0), NEBNext Poly(A) mRNA Magnetic Isolation Module ([…]), and NEBNext Ultra Directional RNA Library Prep Kit for Illumina ([…]) (New England Biosystems #E74901). […] Two hundred μl of Lysis Binding Mix was used per well of the multiwell plate containing adherent cells (usually a 24-well plate). For mRNA isolation and library prep, the NEBNext Poly(A) mRNA Magnetic Isolation Module and Directional Prep kit was used. RNA isolated from cells above was quantified, and prepared in […] of each sample in 50 μl of nuclease-free water. This protocol may be run in microfuge tubes or in a 96-well plate. […] Genomic alignments were converted to transcriptome alignments based on reference transcript annotations from the Human GENCODE Gene Set release 24 (Harrow et al., Genome Res. […] Standard QC were applied (read integrity, mapping statistics, library complexity, fragment bias) to remove unsatisfactory samples. Differential gene expression was computed using the negative binomial model implemented by DESeq2 version 1.16.1 (Love et al., Genome Biol. (2014) 15(12):550). […] RNA-seq signals were also normalized by read depth and visualized using the UCSC browser. To identify small molecules that modulate target gene expression, primary human hepatocytes were prepared as a monoculture, and at least one small molecule compound was applied to the cells. RNA-seq was performed to determine the effects of the compounds on the expression of the target genes in hepatocytes. Fold change was calculated by dividing the level of expression in the cell system that had been perturbed by the level of expression in an unperturbed system.

[4] = test system: NOTCH2; assay: RNA-seq of NOTCH2 expression in compound-treated primary human hepatocytes; conditions: primary human hepatocytes
Procedure: as §4

[5] = test system: ANGPTL3; assay: RNA-seq of ANGPTL3 expression in compound-treated primary human hepatocytes; conditions: additional compounds (Table 13), linear fold change
Procedure: as §1, §2, §3
This protocol is a modified version of the following protocols: MagMAX mirVana Total RNA Isolation Kit User Guide (Applied Biosystems #MAN0011131 Rev B.0), NEBNext Poly(A) mRNA Magnetic Isolation Module (E7490), and NEBNext Ultra Directional RNA Library Prep Kit for Illumina (E7420) (New England Biosystems #E74901).
The MagMAX mirVana kit instructions (the section titled “Isolate RNA from cells” on pages 14-17) were used for isolation of total RNA from cells in culture. Two hundred μl of Lysis Binding Mix was used per well of the multiwell plate containing adherent cells (usually a 24-well plate).
For mRNA isolation and library prep, the NEBNext Poly(A) mRNA Magnetic Isolation Module and Directional Prep kit was used. RNA isolated from cells above was quantified, and prepared in […] of each sample in 50 μl of nuclease-free water. This protocol may be run in microfuge tubes or in a 96-well plate.
All pass filter reads from each sample were mapped against the human genome (assembly GRCh38/GCA_000001405.15 “no alt” analysis set merged with hs38d1/GCA_000786075.2) using two pass mapping via STAR version 2.5.3a (alignment parameters alignIntronMin=20; alignIntronMax=1000000; outFilterMismatchNmax=999; outFilterMismatchNoverLmax=0.05; outFilterType=BySJout; outFilterMultimapNmax=20; alignSJoverhangMin=8; alignSJDBoverhangMin=1; alignMatesGapMax=1000000) (Dobin et al., Bioinformatics (2012) 29(1):15-21). Genomic alignments were converted to transcriptome alignments based on reference transcript annotations from the Human GENCODE Gene Set release 24 (Harrow et al., Genome Res. (2012) 22(9): 1760-1774). Using unique and multimapped transcriptomic alignments, gene-level abundance estimates were computed using RSEM version 1.3.0 (Li and Dewey, BMC Bioinformatics (2011) 12:323) in a strand-aware manner, and including confidence interval sampling calculations, to arrive at posterior mean estimates (PME) of abundances (counts and normalized FPKM—fragments per kilobase of exon per million mapped fragments) from the underlying Bayesian model. Standard QC were applied (read integrity, mapping statistics, library complexity, fragment bias) to remove unsatisfactory samples.

| Compound | Stellate MECP2 (Avg_FC) 1 uM [1] | Stellate MECP2 (Avg_FC) 10 uM [1] | Human hep donor-1 MECP2 (Avg_FC) 1 uM [2] | Human hep donor-1 MECP2 (Avg_FC) 10 uM [2] | JAG1 Fold Change (Log2) ([3]; primary human hepatocytes) | Significant modulation of JAG1 (in words) ([3]; summary of Table 6) | NOTCH2 Fold Change (Log2) [4] | Human hep donor-2 MECP2 (Avg_FC) 1 uM [2] | Human hep donor-2 MECP2 (Avg_FC) 10 uM [2] | ANGPTL3-LINEAR FOLD CHANGE [5] |
| --- | --- | --- | --- | --- | --- | --- | --- | --- | --- | --- |
| C=CCNC1=C2C[C@@H](C)C[C@H](OC)[C@H](O)[C@@H](C)/C=C(\C)[C@H](OC(N)=O)[C@@H](OC)/C=C\C=C(/C)C(=O)NC(=CC1=O)C2=O [17-AAG (Tanespimycin)/KOS-953] | 2.43 | 2.21 | 1.63 | 2.80 |  |  |  |  |  |  |
| Cc1cc(-c2nc(-c3ccc(OC(F)(F)F)cc3)no2)nn1Cc1ccnc(N2CCN(C3CC3)CC2)c1 [BAY 87-2243] |  |  |  |  | 0.61 Log2 | significantly modulate only JAG1 | 0 Log2 |  |  |  |
| CCOc1ccn(-c2ccc(F)cc2)c(=O)c1C(=O)Nc1ccc(Oc2ccnc(N)c2Cl)c(F)c1 [BMS 777607] | 0.97 | 1.92 |  |  |  |  |  | 1.35 | 3.04 |  |
| c1cc(OCCN2CCCCC2)cc(-c2n[nH]c3ccc(-c4nc[nH]n4)cc23)c1 [CC-401 hydrochloride] | 1.92 | 2.69 | 1.84 | 2.03 |  |  |  |  |  |  |
| COc1cccc(-c2cc(F)ccc2[C@H]2Cc3nc(N)nc(C)c3C(=O)N2)n1 [HSP-990] | 1.98 | 1.99 | 2.54 | 2.72 |  |  |  | 1.27 | 1.66 |  |
| CC(C)n1nc(-c2ccc3oc(N)nc3c2)c2c(N)ncnc21 [INK-128] | 1.33 | 2.42 |  |  |  |  |  | 2.16 | 2.52 |  |
| NC(=O)c1ccc(I)c([N+](=O)[O-])c1 [Iniparib (BSI-201)] | 2.39 | 2.26 | 2.28 | 2.15 |  |  |  |  |  |  |
| CN(C)C[C@@H]1CCn2cc(c3ccccc32)C2=C(C(=O)NC2=O)c2cn(c3ccccc23)CCO1.Cl [LY333531 HCl] | 1.26 | 2.15 | 1.44 | 2.14 |  |  |  |  |  |  |
| O=C1NC(=O)C(c2cnc3ccccn23)=C1c1cn2c3c(cc(F)cc13)CN(C(=O)N1CCCCC1)CC2 [LY2090314] | 2.65 | 2.20 | 2.43 | 1.94 |  |  |  |  |  | 0.1895 |
| Cc1ccc(F)c(NC(=O)Nc2ccc(-c3cccc4[nH]nc(N)c34)cc2)c1 [Linifanib (ABT-869), Linifanib] | 2.50 | 3.17 | 1.78 | 2.01 |  |  |  |  |  |  |
| O=C(O)[C@]1(Cc2cccc(Nc3nccs3)n2)CC[C@@H](Oc2cccc(Cl)c2F)CC1 [MK-5108 (VX-689)] | 2.17 | 2.01 | 2.42 | 2.35 |  |  |  |  |  |  |
| COc1ccc(Cl)c(Nc2nc3ccccc3nc2NS(=O)(=O)c2cccc(NC(=O)C(C)(C)N)c2)c1 [Pilaralisib (XL147), Pilaralisib] | 2.28 | 2.21 | 1.95 | 1.75 |  |  |  |  |  | 0.2606 |
| CCc1ccc(CCOc2ccc(CC3SC(=O)NC3=O)cc2)nc1 (stereo not drawn) [Pioglitazone HCl] | 1.94 | 1.86 | 2.21 | 2.27 |  |  |  |  |  |  |
| CNC(=O)c1cc(Oc2ccc(NC(=O)Nc3ccc(Cl)c(C(F)(F)F)c3)c(F)c2)ccn1 [Regorafenib (BAY 73-4506)] | 2.31 | 2.77 | 2.05 | 1.92 |  |  |  |  |  |  |
| CCC(=O)N1CCN(c2ccc(-n3c(=O)ccc4cnc5ccc(-c6cnc7ccccc7c6)cc5c43)cc2C(F)(F)F)CC1 [torin1] | 1.87 | 3.65 |  |  |  |  |  | 1.34 | 1.79 |  |
